Laboratory results: publication PMC9090415, “Discovery of small molecule inhibitors of Plasmodium falciparum apicoplast DNA polymerase” (Journal of Enzyme Inhibition and Medicinal Chemistry, 2022)

Molecular target: P. falciparum apicoplast DNA polymerase (Pf-apPOL) (Plasmodium falciparum, UniProt Q8ILY1)
Assay: Fluorescence-based high-throughput DNA polymerase assay (molecular beacon), primary screen and dose-response
Format: biochemical
Settings: for DNA Pol: 90 min, 10 µM
Procedure: The HT assay employs a molecular beacon, a stem-loop DNA template with a Cy3 dye and the Black Hole Quencher on the 3′ and 5′ ends of the DNA, respectively. Pf-apPOL concentration is based on a calculated absorptivity of ε280 = 56750 M^−1 cm^−1. Reactions were carried out at 25 °C, using Corning 3575 […] (well-volume, 20 µL). Assays testing for compound inhibition composed of reaction buffer (pH 7.9 in 50 mM potassium acetate, 20 mM Tris-acetate and 10 mM magnesium acetate), Pf-apPOL (20 nM), DNA substrate (20 nM), dNTPs (6 µM), and compound (10 µM in DMSO). The DNA and nucleotide substrates (dNTPs) were at concentrations of 20 nM and 6 µM, respectively, in the assay. Pf-apPOL was incubated in the reaction buffer with dNTPs and the compound of interest (10 µM, in the assay) at 25 °C for 10 min. The DNA substrate was then added and the reaction was allowed to proceed for 90 min at 25 °C.
Each assay plate contained 16 negative controls (no Pf-apPOL, DMSO present) and 16 positive controls (Pf-apPOL present, no DMSO). The fluorescence of each well was determined using a BioTek Synergy Neo fluorescence plate reader using excitation and emission wavelengths of 555 and 570 nm, respectively.
In the above, Min is the average of fluorescence emission of the negative controls (substrate only), Max the average fluorescence emission from the positive controls (enzyme + substrate), and Test the emission from the assays in the presence of compounds (enzyme + compound + substrates). […] […] The IC50 of each compound was determined using Equation (2): (2) IC50= Vmax/(1+ (I/IC50)^n)
In the above, n measures cooperativity, with n > 1 indicating synergistic binding of more than a single molecule of the compound.
To identify apPOL inhibitors we utilised our previously developed high-throughput DNA polymerase assay. The HT assay is based on a molecular beacon DNA template that forms a stem-loop with a Cy3 dye and the Black Hole Quencher on the 3′ and 5′ ends of the DNA, respectively. DNA polymerase activity extends an annealed primer through the stem region, displacing the fluorophore from the quencher, thereby increasing its fluorescence (Figure 1(A)). The assay accurately recapitulates the kinetic behaviour of apPOL, as measured through more conventional low-throughput gel-based assays. The Z′ factor for the assay described here was 0.9 across all plates (data not shown).
Figure 1. High-throughput screening. (A) The fluorescent-based DNA polymerase assay used to screen the compound libraries. The DNA template strand is a hairpin loop with a primer annealed to the loop. The 3’ end of the primer is 11 bases away from the 6 bp duplex. Strand displacement activity of the DNA polymerase separates the Cy3 dye from the Black hole quencher leading to an increase in fluorescent signal. (B) The high-throughput assay workflow. The DNA polymerase is incubated with […] compound for 10 min prior to addition of the hairpin substrate. The reaction is quenched at 3 different time points and the fluorescent signal is measured and % inhibition is determined using the provided equation.

Sequence of P. falciparum apicoplast DNA polymerase (Pf-apPOL) (Q8ILY1 entry or part of it): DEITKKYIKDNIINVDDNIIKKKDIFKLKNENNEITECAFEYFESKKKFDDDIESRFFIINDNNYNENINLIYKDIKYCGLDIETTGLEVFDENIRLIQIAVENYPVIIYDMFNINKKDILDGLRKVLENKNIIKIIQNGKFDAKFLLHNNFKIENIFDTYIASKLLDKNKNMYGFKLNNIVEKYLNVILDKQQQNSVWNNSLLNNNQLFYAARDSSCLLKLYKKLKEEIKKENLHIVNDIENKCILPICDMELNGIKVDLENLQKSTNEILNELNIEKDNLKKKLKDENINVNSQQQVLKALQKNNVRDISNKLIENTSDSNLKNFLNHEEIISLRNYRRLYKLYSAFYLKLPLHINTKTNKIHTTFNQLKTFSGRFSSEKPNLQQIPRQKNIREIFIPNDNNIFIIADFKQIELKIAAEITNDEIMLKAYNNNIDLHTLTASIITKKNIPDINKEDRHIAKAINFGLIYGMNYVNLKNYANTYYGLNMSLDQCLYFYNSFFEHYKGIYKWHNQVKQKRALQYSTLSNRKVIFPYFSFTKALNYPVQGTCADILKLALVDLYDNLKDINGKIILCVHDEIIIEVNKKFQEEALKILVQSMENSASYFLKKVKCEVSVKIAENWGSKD

Compound: O=C(CSc1nc2ccccc2s1)Nc1ncc([N+](=O)[O-])s1 [KU0019667]
- % inhibition Apo pol 10' (DRC-1, concentration 2.5): 10.9138%
- % inhibition Apo pol 10' (DRC-1, concentration 5): 29.1635%
- % inhibition Apo pol 10' (DRC-1, concentration 10): 61.6987%
- % inhibition Apo pol 10' (DRC-1, concentration 20): 83.6526%
- % inhibition Apo pol 10' (DRC-1, concentration 40): 89.1806%
- % inhibition Apo pol 10' (DRC-1, concentration 80): 87.7336%
- % inhibition Apol 90' (DRC-1, 90', concentration 2.5): 0.4185%
- % inhibition Apol 90' (DRC-1, 90', concentration 5): 12.4734%
- % inhibition Apol 90' (DRC-1, 90', concentration 10): 42.9699%
- % inhibition Apol 90' (DRC-1, 90', concentration 20): 72.9689%
- % inhibition Apol 90' (DRC-1, 90', concentration 40): 86.0812%
- % inhibition Apol 90' (DRC-1, 90', concentration 80): 87.9131%
- % inhibition apPOL 180' (DRC-1, concentration 2.5): -6.305%
- % inhibition apPOL 180' (DRC-1, concentration 5): -0.1201%
- % inhibition apPOL 180' (DRC-1, concentration 10): 24.654%
- % inhibition apPOL 180' (DRC-1, concentration 20): 57.312%
- % inhibition apPOL 180' (DRC-1, concentration 40): 80.0815%
- % inhibition apPOL 180' (DRC-1, concentration 80): 84.5661%
- % inhibition Apo pol 5' (DRC-2, concentration 2.5): 0.175%
- % inhibition Apo pol 5' (DRC-2, concentration 5): -22%
- % inhibition Apo pol 5' (DRC-2, concentration 10): -38%
- % inhibition Apo pol 5' (DRC-2, concentration 20): -73%
- % inhibition Apo pol 5' (DRC-2, concentration 40): -86%
- % inhibition Apo pol 5' (DRC-2, concentration 80): -130%
- % inhibition Apol 40' (DRC-2, 40', concentration 2.5): -1.35%
- % inhibition Apol 40' (DRC-2, 40', concentration 5): -10%
- % inhibition Apol 40' (DRC-2, 40', concentration 10): -13%
- % inhibition Apol 40' (DRC-2, 40', concentration 20): -32%
- % inhibition Apol 40' (DRC-2, 40', concentration 40): -29%
- % inhibition Apol 40' (DRC-2, 40', concentration 80): -70%
- % inhibition ApPOL 90' (DRC-2, 90', concentration 2.5): -3%
- % inhibition ApPOL 90' (DRC-2, 90', concentration 5): -10%
- % inhibition ApPOL 90' (DRC-2, 90', concentration 10): -10%
- % inhibition ApPOL 90' (DRC-2, 90', concentration 20): -23%
- % inhibition ApPOL 90' (DRC-2, 90', concentration 40): -14%
- % inhibition ApPOL 90' (DRC-2, 90', concentration 80): -45%
- % inhibition apPOL 180' (DRC-2, concentration 2.5): -13%
- % inhibition apPOL 180' (DRC-2, concentration 5): -17%
- % inhibition apPOL 180' (DRC-2, concentration 10): -18%
- % inhibition apPOL 180' (DRC-2, concentration 20): -23%
- % inhibition apPOL 180' (DRC-2, concentration 40): -7%
- % inhibition apPOL 180' (DRC-2, concentration 80): -23%
- % inhibition apPOL 180' (conc. 2.5, DRC-2): -13%
- % inhibition Apol 40' (conc. 5, 40', DRC-2): -10%
- % inhibition ApPOL 90' (conc. 5, 90', DRC-2): -10%
- % inhibition Apol 40' (conc. 10, 40', DRC-2): -13%
- % inhibition ApPOL 90' (conc. 10, 90', DRC-2): -10%
- % inhibition ApPOL 90' (conc. 20, 90', DRC-2): -23%
- % inhibition apPOL 180' (conc. 20, DRC-2): -23%
- % inhibition apPOL 180' (conc. 80, DRC-2): -23%
- DNA Pol (primary screen value by plate and well): 67
- DNA Pol (primary screen value of the 186 hits, unit not given): 67

Compound: CCN1C(=O)C(=Cc2cccc(OC)c2O)SC1=S [Molecule 78]
- IC50 (supplemental file 2, sheet IC50 nontoxic compounds, Pf-apPOL): 35 µM

Compound: O=C(Nc1cccc(C(=O)Nc2ccc(S(=O)(=O)[O-])c3cc(S(=O)(=O)[O-])cc(S(=O)(=O)[O-])c23)c1)Nc1cccc(C(=O)Nc2ccc(S(=O)(=O)[O-])c3cc(S(=O)(=O)[O-])cc(S(=O)(=O)[O-])c23)c1.[Na+].[Na+].[Na+].[Na+].[Na+].[Na+] [Molecule 39, O=C(Nc1cccc(c1)C(=O)Nc1ccc(c2c1c(cc(c2)S(=O)(=O)[O-])S(=O)(=O)[O-])S(=O)(=O)[O-])Nc1cccc(c1)C(=O)Nc1ccc(c2c1c(cc(c2)S(=O)(=O)[O-])S(=O)(=O)[O-])S(=O)(=O)[O-].[Na+].[Na+].[Na+].[Na+].[Na+].[Na+]]
- DNA Pol ('DNA Pol' of the 186 hits list (primary screen result), unit not given): 94
- % inhibition Apo pol 10' (DRC-1, concentration 2.5): 28.0363%
- % inhibition Apo pol 10' (DRC-1, concentration 5): 43.2303%
- % inhibition Apo pol 10' (DRC-1, concentration 10): 60.7681%
- % inhibition Apo pol 10' (DRC-1, concentration 20): 81.9365%
- % inhibition Apo pol 10' (DRC-1, concentration 40): 96.2832%
- % inhibition Apo pol 10' (DRC-1, concentration 80): 99.222%
- % inhibition Apol 90' (DRC-1, 90', concentration 2.5): -1.332%
- % inhibition Apol 90' (DRC-1, 90', concentration 5): 6.063%
- % inhibition Apol 90' (DRC-1, 90', concentration 10): 22.6686%
- % inhibition Apol 90' (DRC-1, 90', concentration 20): 56.1821%
- % inhibition Apol 90' (DRC-1, 90', concentration 40): 89.9026%
- % inhibition Apol 90' (DRC-1, 90', concentration 80): 98.7402%
- % inhibition apPOL 180' (DRC-1, concentration 2.5): -3.025%
- % inhibition apPOL 180' (DRC-1, concentration 5): 1.181%
- % inhibition apPOL 180' (DRC-1, concentration 10): 16.2132%
- % inhibition apPOL 180' (DRC-1, concentration 20): 51.6229%
- % inhibition apPOL 180' (DRC-1, concentration 40): 87.2271%
- % inhibition apPOL 180' (DRC-1, concentration 80): 98.5627%
- % inhibition Apol 40' (DRC-2, 40', concentration 20 (unit not given)): 56%
- % inhibition ApPOL 90' (DRC-2, 90', concentration 20 (unit not given)): 56%
- % inhibition Apo pol 5' (DRC-2, concentration 2.5): 12%
- % inhibition Apo pol 5' (DRC-2, concentration 5): 23%
- % inhibition Apo pol 5' (DRC-2, concentration 10): 41%
- % inhibition Apo pol 5' (DRC-2, concentration 20): 52%
- % inhibition Apo pol 5' (DRC-2, concentration 40): 59%
- % inhibition Apo pol 5' (DRC-2, concentration 80): 63%
- % inhibition Apol 40' (DRC-2, 40', concentration 2.5): -11%
- % inhibition Apol 40' (DRC-2, 40', concentration 5): 4.26%
- % inhibition Apol 40' (DRC-2, 40', concentration 10): 29%
- % inhibition Apol 40' (DRC-2, 40', concentration 20): 56%
- % inhibition Apol 40' (DRC-2, 40', concentration 40): 75%
- % inhibition Apol 40' (DRC-2, 40', concentration 80): 79%
- % inhibition ApPOL 90' (DRC-2, 90', concentration 2.5): -13%
- % inhibition ApPOL 90' (DRC-2, 90', concentration 5): 1%
- % inhibition ApPOL 90' (DRC-2, 90', concentration 10): 28%
- % inhibition ApPOL 90' (DRC-2, 90', concentration 20): 56%
- % inhibition ApPOL 90' (DRC-2, 90', concentration 40): 78%
- % inhibition ApPOL 90' (DRC-2, 90', concentration 80): 83%
- % inhibition apPOL 180' (DRC-2, concentration 2.5): -3.36%
- % inhibition apPOL 180' (DRC-2, concentration 5): 7.57%
- % inhibition apPOL 180' (DRC-2, concentration 10): 31%
- % inhibition apPOL 180' (DRC-2, concentration 20): 58%
- % inhibition apPOL 180' (DRC-2, concentration 40): 80%
- % inhibition apPOL 180' (DRC-2, concentration 80): 86%
- DNA Pol (primary screen value of the library well, unit not given): 94
